Experimental findings from PubChem BioAssay AID1996 are described below.

One may read the solubility (kinetic) as solubility judged after dilution from a stock solution rather than from solid.

In brackets after ≈: the same amount, converted by molar mass.

The conditions of the series: buffer; pH 7.4; 200.0 µM.
Turning to `COc1ccc(C2NC(=O)CCC2[N+](=O)[O-])c(OC)c1` (configuration not stated), the solubility (kinetic) was greater than 42 µg/mL.

`CCc1nc(N)nc(N)c1-c1ccc(Cl)cc1`: the solubility (kinetic) was greater than 37.3 µg/mL.

`CCNC(=S)N/N=C(\C)c1cccc(OC)c1`: the kinetic solubility is greater than 37.7 µg/mL.

`O=C1/C(=C\c2ccco2)SC(=S)N1C1CCS(=O)(=O)C1` (configuration not stated) displayed a solubility (kinetic) of 6.6 µg/mL (≈ 20 µM).

With `CN1CCN(CCc2nc3cc(NC(=O)c4ccco4)ccc3n2C)CC1`, the kinetic solubility was greater than 55.1 µg/mL.

In the case of `O=C(O)c1ccccc1NCc1ccsc1`, the kinetic solubility was greater than 35 µg/mL.

On to `O=C(CN1CCN(Cc2ccc(F)cc2)C1=O)NC1CCCC1`, for which the kinetic solubility is greater than 47.9 µg/mL.

Turning to `CSCC[C@H](NC(=O)Nc1ccc(OC(F)(F)F)cc1)C(=O)O`, the kinetic solubility was greater than 52.8 µg/mL.

`CC(C)(C)c1ccc(NC(=O)CCNC(=O)c2ccco2)cc1` came in with a solubility (kinetic) greater than 47.2 µg/mL.

Regarding `Cc1ncc([N+](=O)[O-])n1S(=O)(=O)c1cc(Cl)ccc1Cl`, the solubility (kinetic) turned out to be 40.3 µg/mL (≈ 120 µM).

As for `O=C(Nc1ccccc1O)/C(=C\c1ccccc1)NC(=O)c1ccccc1`, the solubility (kinetic) came out at 14.9 µg/mL (≈ 41.6 µM).

Compound `COc1cc(OC)c(C(=O)OCC(=O)NC2CCCC2)cc1OC` showed a solubility (kinetic) greater than 50.6 µg/mL.

Take `COC(=O)Cc1c(O)ccn(CCc2c[nH]c3ccccc23)c1=O`: the solubility (kinetic) was greater than 49 µg/mL.

For `CC1=C(C(=O)OC(C)C)C(c2ccc(C)o2)C(C(=O)OC(C)C)=C(C)N1`, the kinetic solubility was determined as 11.8 µg/mL (≈ 32.6 µM).

The compound `CCN(c1ccccc1)S(=O)(=O)c1cc(C(=O)NCC(c2ccco2)N2CCCCC2)ccc1C` (configuration not stated) showed a solubility (kinetic) of 18.2 µg/mL (≈ 36.7 µM).

In turn, `O=C(CN1CCCCC1)NNC(=O)c1ccc([N+](=O)[O-])cc1` came in with a solubility (kinetic) greater than 45.9 µg/mL.

In the case of `O=C(COC(=O)c1c[nH]c2ccccc12)Nc1ccc(F)cc1`, the kinetic solubility is 3.1 µg/mL (≈ 9.93 µM).

On to `Cc1sc2ncnc(SCC(=O)NC(C)C(C)C)c2c1C` (configuration not stated), for which the solubility (kinetic) stood at 4.6 µg/mL (≈ 14.2 µM).

In turn, `O=c1oc2ccccc2n1Cc1cccc(F)c1` gave a solubility (kinetic) of 8.3 µg/mL (≈ 34.1 µM).

Consider `CCc1ccccc1NC(=O)c1cc(C)no1`, for which the solubility (kinetic) is greater than 34.5 µg/mL.

`CCn1c(=O)c2c(nc3n2CCCN3Cc2ccccc2)n(C)c1=O` returned a kinetic solubility of 13.7 µg/mL (≈ 40.4 µM).

In the case of `O=C(Nc1ccccc1N1CCOCC1)C1CCCO1` (configuration not stated), the solubility (kinetic) was greater than 41.5 µg/mL.

Compound `COc1ccc(NC(=O)COC(=O)CCc2ccccc2)c(OC)c1` yielded a kinetic solubility of 5.2 µg/mL (≈ 15.1 µM).

With `Cc1cc(=O)oc2cc(OCCC[n+]3ccccc3)ccc12.[Br-]`, the kinetic solubility came to 53.6 µg/mL.

`Cc1cccc(Cn2c(=O)oc3ccc(C)cc32)c1` registered a solubility (kinetic) of 4.5 µg/mL (≈ 17.8 µM).

For `CC(=O)OCCNc1cc(SC(C)C)c2nonc2c1[N+](=O)[O-]`, the solubility (kinetic) turned out to be 4.1 µg/mL (≈ 12 µM).

Compound `Cc1ccc(S(=O)(=O)N2CCOCC2)cc1NCC(=O)Nc1ccc(OC(F)(F)F)cc1` registered a kinetic solubility of 3 µg/mL (≈ 6.34 µM). The solubility kinetic values of the last two compounds are within 1.5-fold of each other.

Turning to `COc1ccc(S(=O)(=O)NC2CCCC2)cc1Cl`, the kinetic solubility is greater than 43.5 µg/mL.

In turn, `Cc1cccc[n+]1CC(=O)c1ccc(Cl)cc1.[Cl-]` gave a solubility (kinetic) of 32.9 µg/mL.

`O=C(NC1CCCC1)c1cc(-c2ccc(Cl)cc2Cl)on1` showed a solubility (kinetic) of 1 µg/mL (≈ 3.08 µM).

In turn, `O=C(CN1C(=O)c2ccccc2C1=O)NCc1ccc(F)cc1` came in with a solubility (kinetic) of 6.5 µg/mL (≈ 20.8 µM).

The compound `COC(=O)NCC(c1ccco1)N1CCN(c2ccc(OC)cc2)CC1` (configuration not stated) displayed a kinetic solubility greater than 53.9 µg/mL.

In turn, `CCOP(=O)(OCC)/C(=N/OC(=O)c1cccc([N+](=O)[O-])c1)C(N)=O` displayed a solubility (kinetic) of 55 µg/mL (≈ 147 µM).

Turning to `Cc1cccc2c(=O)cc(C)n(CC(N)=O)c12`, the solubility (kinetic) was greater than 34.5 µg/mL.

On to `O=C(c1cccs1)N1CCN=C1SCc1ccccc1F`, for which the solubility (kinetic) was less than 0.3 µg/mL.

For the compound `CCC1C(=O)C(CC)C(c2ccccc2)NC1c1ccccc1` (configuration not stated), the kinetic solubility is 4.3 µg/mL (≈ 14 µM).

`Cc1cc(C)cc(C(=O)Nc2cccnc2)c1` had a solubility (kinetic) greater than 33.9 µg/mL.

`O=C(NC1CCN(Cc2ccccc2)CC1)c1ccccc1Cl` registered a solubility (kinetic) of 35.7 µg/mL (≈ 109 µM).

In turn, `Cc1ccc2cc(COC(=O)c3cccc([N+](=O)[O-])c3)c(=O)[nH]c2c1` had a kinetic solubility of 2.7 µg/mL (≈ 7.98 µM).

In turn, `COCCCNc1nc(N)c([N+](=O)[O-])c(N2CCCCCC2)n1` yielded a kinetic solubility of 47.4 µg/mL (≈ 146 µM).

`O=C(CN1C(=O)CSc2ncccc21)Nc1ccccc1F`: the kinetic solubility was greater than 47.6 µg/mL.

Turning to `CC(=O)NC(Cc1ccccc1)Cc1ccccc1`, the kinetic solubility was greater than 38 µg/mL.

`COCCNC(=S)N1CCCC(CO)C1` (configuration not stated) showed a solubility (kinetic) greater than 34.9 µg/mL.

In turn, `CCOC(=O)N1CCC(NC(=O)c2ccccc2C(=O)O)CC1` registered a solubility (kinetic) greater than 48.1 µg/mL.

Regarding `CCOc1ccc(NC(=O)COc2ccc(S(=O)(=O)N3CCOCC3)cc2)cc1`, the kinetic solubility was 2.9 µg/mL (≈ 6.9 µM).

Regarding `Cc1ccc(C(=O)NCC(=O)OCc2c(F)cccc2Cl)s1`, the solubility (kinetic) turned out to be 9.2 µg/mL (≈ 26.9 µM).

For the compound `COc1ccccc1C(=O)Nc1ccc(Nc2ccccc2)cc1`, the solubility (kinetic) was less than 0.3 µg/mL.

`CCOC(=O)CNC(=O)Cn1cnc2c(oc3ccccc32)c1=O` gave a kinetic solubility greater than 49.4 µg/mL.

In turn, `O=C(NCc1c(O)ccc2ccccc12)c1ccccc1` returned a kinetic solubility of 1 µg/mL (≈ 3.61 µM).

`O=C(COC(=O)c1ccccc1O)Nc1ccc2ccccc2c1` returned a solubility (kinetic) of 6.2 µg/mL (≈ 19.3 µM).

On to `CCCSC1=C(C#N)C(c2cccs2)CC(=O)N1` (configuration not stated), for which the kinetic solubility worked out at 33.7 µg/mL (≈ 121 µM).

`CCCCS(=O)(=O)N1CCCC(C(=O)NCC2CCCO2)C1` (configuration not stated) returned a kinetic solubility of 41.1 µg/mL (≈ 124 µM).
